US20120288544A1, “NOVEL RETIGABINE COMPOSITION” (GLAXO GROUP LIMITED, priority 2010, published 2012)

Test: pH dependent solubility of retigabine
Conditions: around pH 2 (stomach) versus around pH 7 (lower intestine)

Q: Which pH dependent solubility does the source give for `CCOC(=O)Nc1ccc(NCc2ccc(F)cc2)cc1N` [Retigabine] here?
A: more soluble in the acidic conditions of the stomach (around pH 2) than in the near neutral conditions of the lower intestine (around pH 7)
